Laboratory results from ChEMBL document CHEMBL1201862, “PubChem BioAssay data set” (2004).
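Values below derive from 48-hour exposures of cells grown in 96-well plates, with endpoints linearly interpolated between the two concentrations bracketing the appropriate inhibition level. Here, GI50 denotes the concentration required for 50% inhibition of growth.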 Calls of active or inactive are those of the source. Cut-off read from the data, not from the text of the source: active = GI50 up to about 1.1 µM and inactive = higher.

Columns and labels:
Experiment in all cases: NCI-60 cell line screen, 48 h
[1] = test system: RPMI-8226
[2] = test system: A549
[3] = test system: OVCAR-4
[4] = test system: DU-145
[5] = test system: SF-295
[6] = test system: TK-10
[7] = test system: T47D
[8] = test system: SF-268
[9] = test system: MDA-MB-435
[10] = test system: NCI-H460
[11] = test system: ACHN
[12] = test system: UACC-257
[13] = test system: COLO 205
[14] = test system: HCT-116
[15] = test system: K562
[16] = test system: SK-MEL-28
[17] = test system: MCF7
[18] = test system: SF-539
[19] = test system: EKVX
[20] = test system: HCT-15
[21] = test system: CCRF-CEM
[22] = test system: MOLT-4
[23] = test system: OVCAR-8
[24] = test system: BT-549
[25] = test system: U-251
[26] = test system: SNB-19
[27] = test system: SK-OV-3
[28] = test system: NCI/ADR-RES
[29] = test system: SW-620
[30] = test system: OVCAR-3
[31] = test system: PC-3
[32] = test system: MDA-N
[33] = test system: UO-31
[34] = test system: UACC-62
[35] = test system: SK-MEL-2
[36] = test system: HL-60
[37] = test system: HCC 2998
[38] = test system: A498
[39] = test system: NCI-H23
[40] = test system: LOX IMVI
[41] = test system: HOP-62
[42] = test system: HT-29
[43] = test system: SN12C
[44] = test system: SNB-75
[45] = test system: SR
[46] = test system: NCI-H226
[47] = test system: M14
[48] = test system: MDA-MB-231
[49] = test system: RXF 393
[50] = test system: CAKI-1
[51] = test system: KM12
[52] = test system: HOP-92
[53] = test system: OVCAR-5
[54] = test system: IGROV-1
[55] = test system: SK-MEL-5
[56] = test system: NCI-H522
[57] = test system: Malme-3M
[58] = test system: 786-0

Measured: GI50

COc1ccc2[nH]c(C(=O)N3CC(CCl)c4c3cc(N)c3ccccc43)cc2c1 (stereo not given)
active: [1] 0.0122 µM | [2] < 0.01 µM | [3] < 0.01 µM | [4] < 0.01 µM | [5] < 0.01 µM | [6] < 0.01 µM | [7] 0.0101 µM | [8] < 0.01 µM | [9] 0.0118 µM | [10] < 0.01 µM | [11] < 0.01 µM | [12] 0.0119 µM | [13] < 0.0105 µM | [14] < 0.01 µM | [15] < 0.01 µM | [16] 0.0142 µM | [17] < 0.01 µM | [18] < 0.01 µM | [19] < 0.01 µM | [21] < 0.01 µM | [22] < 0.01 µM | [23] < 0.01 µM | [24] < 0.0153 µM | [25] < 0.01 µM | [26] < 0.0154 µM | [27] < 0.014 µM | [28] < 0.01 µM | [29] < 0.01 µM | [30] 0.0139 µM | [31] < 0.01 µM | [32] 0.0112 µM | [33] < 0.01 µM | [34] < 0.01 µM | [35] 0.0122 µM | [36] < 0.01 µM | [37] < 0.01 µM | [38] 0.0116 µM | [39] < 0.01 µM | [40] < 0.01 µM | [41] < 0.01 µM | [42] < 0.01 µM | [43] < 0.01 µM | [44] < 0.01 µM | [45] < 0.01 µM | [46] < 0.0133 µM | [47] < 0.01 µM | [48] < 0.0204 µM | [49] < 0.01 µM | [50] < 0.01 µM | [51] < 0.01 µM | [52] < 0.018 µM | [53] < 0.01 µM | [54] < 0.01 µM | [55] < 0.01 µM
< 0.01 µM: [20]

COc1ccc(CC(CO)NC(=O)OCc2ccccc2)cc1Oc1ccc(CC(CO)NC(=O)OCc2ccccc2)cc1 (stereo not given)
29.4 µM: [20]
inactive: [1] 6.27 µM | [2] 11.7 µM | [3] 27.9 µM | [4] 15.4 µM | [5] 11.6 µM | [6] 19.4 µM | [8] 7.82 µM | [9] 15.3 µM | [10] 15.7 µM | [12] 17 µM | [13] 23.1 µM | [14] 15.1 µM | [16] 18.3 µM | [19] 3.85 µM | [21] 5.77 µM | [56] 1.47 µM | [57] 7.91 µM | [22] 3.43 µM | [24] 12.4 µM | [25] 21.2 µM | [26] 19 µM | [27] 13.4 µM | [29] 32.2 µM | [30] 13.1 µM | [31] 11.2 µM | [32] 15.6 µM | [33] 14.3 µM | [34] 11.5 µM | [35] 16.1 µM | [37] 21.2 µM | [38] 15.5 µM | [39] 16.5 µM | [41] 15.3 µM | [42] 11.1 µM | [43] 16.7 µM | [45] 26.7 µM | [47] 10.7 µM | [48] 13.1 µM | [50] 20.4 µM | [51] 12.2 µM | [52] 18.3 µM | [53] 15 µM | [54] 11 µM | [55] 5.09 µM
active: [44] 0.37 µM

O=C1CSC2(CC(/C=C/C=C/c3ccccc3)=NN2c2cccc(S(=O)(=O)O)c2)N1c1nc2ccccc2s1 (stereo not given)
67.9 µM: [20]
inactive: [1] 21.2 µM | [2] 50.8 µM | [3] 36.9 µM | [6] 34.5 µM | [7] 23.4 µM | [9] 21.6 µM | [10] 31.3 µM | [11] 40.3 µM | [12] 40.6 µM | [13] 50.8 µM | [14] 46.5 µM | [15] 29 µM | [16] > 100 µM | [17] 29.6 µM | [18] 51.1 µM | [19] 49 µM | [21] 20.8 µM | [56] 4.71 µM | [22] 21.2 µM | [23] 42.1 µM | [24] 51.5 µM | [25] 24 µM | [26] 36.4 µM | [28] 51.1 µM | [29] 56.2 µM | [31] 37.3 µM | [58] 40.2 µM | [32] 52 µM | [33] 45.3 µM | [34] 35.2 µM | [35] 26 µM | [36] 4.24 µM | [37] 69.7 µM | [38] 26.4 µM | [39] 43.8 µM | [40] 20 µM | [42] 64.3 µM | [43] 62.5 µM | [44] > 100 µM | [45] 21.2 µM | [46] 24.8 µM | [47] 60.4 µM | [48] 31.3 µM | [49] > 100 µM | [50] 54.5 µM | [51] 45.8 µM | [52] 34.8 µM | [53] > 100 µM | [54] 33.7 µM | [55] 35.2 µM

CC1(C)C2CC3C(C)(C2)C31c1cc(Cl)ccc1N (stereo not given)
inactive: [1] 13 µM | [2] 11.9 µM | [3] 15.2 µM | [4] 14 µM | [5] 15.2 µM | [6] 15.5 µM | [7] 12 µM | [8] 13.8 µM | [9] 12.6 µM | [10] 15.1 µM | [11] 15.6 µM | [12] 13.4 µM | [13] 19.1 µM | [14] 2.23 µM | [15] 10.5 µM | [16] 17.3 µM | [17] 13.4 µM | [18] 15.5 µM | [19] 13.7 µM | [21] 16 µM | [56] 6.71 µM | [57] 7.53 µM | [22] 8.36 µM | [23] 15.1 µM | [24] 15.5 µM | [25] 15.2 µM | [26] 18.9 µM | [27] 15.5 µM | [28] 14.7 µM | [29] 15 µM | [30] 16.7 µM | [31] 13.8 µM | [58] 15.3 µM | [32] 12.2 µM | [33] 13.9 µM | [34] 15.2 µM | [35] 15 µM | [37] 15 µM | [38] 17.7 µM | [39] 12.3 µM | [40] 13.6 µM | [41] 15.3 µM | [42] 14.5 µM | [43] 14.4 µM | [44] 11.9 µM | [45] 6.79 µM | [46] 17.8 µM | [47] 12.4 µM | [48] 16.2 µM | [49] 10.3 µM | [50] 15.6 µM | [51] 14.4 µM | [52] 13.3 µM | [53] 16 µM | [54] 14.5 µM | [55] 14.2 µM
10.9 µM: [20]

O=C(c1ccc(Cl)cc1Cl)N1CCN(C(=O)c2ccc(Cl)cc2Cl)C1=S
inactive: [1] 12.9 µM
